# ChEMBL document CHEMBL5108001, “Multivalent glucosidase inhibitors based on perylene bisimide and iminosugar conjugates” (Eur J Med Chem, 2022)
# How the values were obtained:
# [1] = Toxicity in C57BL/6J mouse assessed as change in CK level at 2 mg/kg administered for 7 days; format: organism-based; conditions: in vivo, 168 h, time 7 day
# [2] = Toxicity in C57BL/6J mouse assessed as change in GLU level at 2 mg/kg administered for 7 days; format: organism-based; conditions: in vivo, 168 h, time 7 day
# [3] = Toxicity in C57BL/6J mouse assessed as change in blood triglyceride level at 2 mg/kg administered for 7 days; format: organism-based; conditions: in vivo, 168 h, time 7 day
# [4] = Toxicity in C57BL/6J mouse assessed as kidneys pathological morphological changes at 2 mg/kg administered for 7 days by hematoxylin-eosin staining based analysis; format: organism-based; conditions: in vivo, 168 h, time 7 day
# [5] = tested on: Mus musculus; assay: Hypoglycemic activity in C57BL/6J mouse assessed as reduction in postprandial blood glucose level per DNJ nit at 0.5 to 2 mg/kg measured after 15 mins by maltose tolerance test relative to Miglitol; format: functional; conditions: dose 0.5-2 mg/kg, 0.25 h
# [6] = Hepatotoxicity in C57BL/6J mouse assessed as change in serum ALP level at 2 mg/kg administered for 7 days; format: toxicity, organism-based; conditions: in vivo, 168 h, time 7 day
# [7] = Toxicity in C57BL/6J mouse assessed as reduction in blood LDL level at 2 mg/kg administered for 7 days; format: organism-based; conditions: in vivo, 168 h, time 7 day
# [8] = tested on: Mus musculus; assay: Hypoglycemic activity in C57BL/6J mouse assessed as reduction in postprandial blood glucose level at 0.5 mg/kg measured after 15 mins by maltose tolerance test; format: functional; conditions: 0.25 h
# [9] = tested on: Mus musculus; assay: Hypoglycemic activity in C57BL/6J mouse assessed as reduction in postprandial blood glucose level at 1 mg/kg measured after 30 mins by maltose tolerance test; format: functional; conditions: 0.5 h
# [10] = Hepatotoxicity in C57BL/6J mouse assessed as change in serum AST level at 2 mg/kg administered for 7 days; format: toxicity, organism-based; conditions: in vivo, 168 h, time 7 day
# [11] = tested on: Mus musculus; assay: Hypoglycemic activity in C57BL/6J mouse assessed as postprandial blood glucose level at 1 mg/kg measured after 30 mins by maltose tolerance test (reference value: 368.49 +/-31.28 mg/dl); format: functional; conditions: 0.5 h
# [12] = tested on: Oryza sativa; assay: Potency index, ratio of Miglitol Ki to test compound Ki for inhibition of rice alpha-glucosidase measured per DNJ unit
# [13] = Toxicity in C57BL/6J mouse assessed as hepatic pathological changes by measuring hepatocytes distributed radially around the central veins at 2 mg/kg administered for 7 days by hematoxylin-eosin staining based analysis; format: organism-based; conditions: in vivo, 168 h, time 7 day
# [14] = Cytotoxicity against human GES1 cells assessed as cell viability at 125 uM; format: toxicity, cell-based; conditions: read-out: Activity
# [15] = tested on: Mus musculus; assay: Hypoglycemic activity in C57BL/6J mouse assessed as postprandial blood glucose level at 0.5 mg/kg measured after 30 mins by maltose tolerance test (reference value: 368.49 +/-31.28 mg/dl); format: functional
# [16] = Renal toxicity in C57BL/6J mouse assessed as change in blood urea level at 2 mg/kg administered for 7 days; format: organism-based; conditions: in vivo, 168 h, time 7 day
# [17] = biological target: T1, Alpha-mannosidase (Canavalia ensiformis) (UniProt C0HJB3); assay: Potency index, ratio of Miglitol Ki to test compound Ki for inhibition of jack bean alpha-mannosidase measured per DNJ unit
# T1 sequence (whole entry): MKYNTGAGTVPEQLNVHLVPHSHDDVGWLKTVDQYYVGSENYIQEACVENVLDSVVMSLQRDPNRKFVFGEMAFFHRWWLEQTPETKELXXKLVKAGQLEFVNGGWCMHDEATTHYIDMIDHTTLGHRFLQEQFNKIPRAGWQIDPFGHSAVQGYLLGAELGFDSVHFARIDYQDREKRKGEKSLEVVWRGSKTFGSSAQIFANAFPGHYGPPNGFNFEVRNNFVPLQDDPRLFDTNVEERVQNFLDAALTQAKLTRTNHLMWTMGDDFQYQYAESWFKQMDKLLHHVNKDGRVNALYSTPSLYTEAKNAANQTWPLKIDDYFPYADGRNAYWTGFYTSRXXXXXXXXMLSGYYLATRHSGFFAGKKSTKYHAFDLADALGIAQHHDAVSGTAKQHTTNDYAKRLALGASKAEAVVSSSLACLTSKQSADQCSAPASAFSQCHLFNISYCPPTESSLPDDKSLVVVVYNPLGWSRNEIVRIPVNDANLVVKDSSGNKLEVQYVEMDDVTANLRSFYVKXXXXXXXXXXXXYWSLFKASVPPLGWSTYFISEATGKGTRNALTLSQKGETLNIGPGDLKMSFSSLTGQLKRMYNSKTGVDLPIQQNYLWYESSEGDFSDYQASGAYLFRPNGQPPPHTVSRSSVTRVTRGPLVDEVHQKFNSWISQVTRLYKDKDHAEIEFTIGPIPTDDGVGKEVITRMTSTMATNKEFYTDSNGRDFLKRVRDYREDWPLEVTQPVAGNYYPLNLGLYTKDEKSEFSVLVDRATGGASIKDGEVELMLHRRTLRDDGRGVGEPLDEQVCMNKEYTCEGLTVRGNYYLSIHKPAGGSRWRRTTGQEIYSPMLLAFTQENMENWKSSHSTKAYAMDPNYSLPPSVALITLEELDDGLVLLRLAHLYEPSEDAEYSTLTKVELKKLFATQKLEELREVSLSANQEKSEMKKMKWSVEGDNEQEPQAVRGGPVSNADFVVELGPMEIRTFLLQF
# [18] = tested on: Mus musculus; assay: Hypoglycemic activity in C57BL/6J mouse assessed as reduction in postprandial blood glucose level at 1 mg/kg measured after 15 mins by maltose tolerance test; format: functional; conditions: 0.25 h
# [19] = Toxicity in C57BL/6J mouse assessed as lungs pathological morphological changes at 2 mg/kg administered for 7 days by hematoxylin-eosin staining based analysis; format: organism-based; conditions: in vivo, 168 h, time 7 day
# [20] = Toxicity in C57BL/6J mouse assessed as change in blood HDL level at 2 mg/kg administered for 7 days; format: organism-based; conditions: in vivo, 168 h, time 7 day
# [21] = Toxicity in C57BL/6J mouse assessed as change in blood cholesterol level at 2 mg/kg administered for 7 days; format: organism-based; conditions: in vivo, 168 h, time 7 day
# [22] = Inhibition of Aspergillus niger alpha-glucosidase by Lineweaver-Burk plot analysis
# [23] = Toxicity in C57BL/6J mouse assessed as change in body weight at 2 mg/kg administered for 7 days; format: organism-based; conditions: in vivo, 168 h, time 7 day
# [24] = tested on: Mus musculus; assay: Hypoglycemic activity in C57BL/6J mouse assessed as reduction in postprandial blood glucose level at 2 mg/kg measured after 15 mins by maltose tolerance test; format: functional; conditions: 0.25 h
# [25] = biological target: T2, Alpha-mannosidase (Canavalia ensiformis, UniProt C0HJB3); assay: Inhibition of jack bean alpha-mannosidase
# T2 sequence (C0HJB3 whole entry): T1 sequence (whole entry)
# [26] = tested on: Mus musculus; assay: Hypoglycemic activity in C57BL/6J mouse assessed as postprandial blood glucose level at 2 mg/kg measured after 30 mins by maltose tolerance test (reference value: 368.49 +/-31.28 mg/dl); format: functional; conditions: 0.5 h
# [27] = Inhibition of alpha-glucosidase in Kunming mouse using p-nitrophenyl-alpha-glycopyranoside as substrate by Lineweaver-Burk plot analysis
# [28] = tested on: Mus musculus; assay: Hypoglycemic activity in C57BL/6J mouse assessed as reduction in postprandial blood glucose level per DNJ unit at 0.5 to 1 mg/kg measured after 30 mins by maltose tolerance test relative to Miglitol; format: functional; conditions: dose 0.5-1 mg/kg
# [29] = Toxicity in C57BL/6J mouse assessed as heart pathological morphological changes at 2 mg/kg administered for 7 days by hematoxylin-eosin staining based analysis; format: organism-based; conditions: in vivo, 168 h, time 7 day
# [30] = tested on: Mus musculus; assay: Hypoglycemic activity in C57BL/6J mouse assessed as reduction in postprandial blood glucose level at 0.5 mg/kg measured after 30 mins by maltose tolerance test; format: functional; conditions: 0.5 h
# [31] = Renal toxicity in C57BL/6J mouse assessed as change in blood uric acid level at 2 mg/kg administered for 7 days; format: organism-based; conditions: in vivo, 168 h, time 7 day
# [32] = Toxicity in C57BL/6J mouse assessed as spleen pathological morphological changes at 2 mg/kg administered for 7 days by hematoxylin-eosin staining based analysis; format: organism-based; conditions: in vivo, 168 h, time 7 day
# [33] = Inhibition of rice alpha-glucosidase by Lineweaver-Burk plot analysis; design: species or system Oryza sativa
# [34] = Renal toxicity in C57BL/6J mouse assessed as blood uric acid level at 2 mg/kg administered for 7 days; format: organism-based; conditions: in vivo, 168 h, time 7 day
# [35] = tested on: Mus musculus; assay: Hypoglycemic activity in C57BL/6J mouse assessed as reduction in postprandial blood glucose level at 2 mg/kg measured after 30 mins by maltose tolerance test; format: functional; conditions: 0.5 h
# [36] = Renal toxicity in C57BL/6J mouse assessed as blood urea level at 2 mg/kg administered for 7 days; format: organism-based; conditions: in vivo, 168 h, time 7 day
# [37] = Hepatotoxicity in C57BL/6J mouse assessed as serum AST level at 2 mg/kg administered for 7 days (reference value: 221.38 +/-23.03 U/L); format: toxicity, organism-based; conditions: in vivo, 168 h, time 7 day
# [38] = Hepatotoxicity in C57BL/6J mouse assessed as serum ALT level at 2 mg/kg administered for 7 days (reference value: 70.49 +/-8.78 U/L); format: toxicity, organism-based; conditions: in vivo, 168 h, time 7 day
Compound,Activity [1],Activity [2],Activity [3],Activity [4],fold change (FC) [5],Activity [7],inhibition in vivo at 0.5 mg/kg [8],inhibition in vivo at 1 mg/kg [9],Activity [11],Ratio Ki [12],Activity [13],viability at 125 µM [14],Activity [15],Ratio Ki [17],inhibition in vivo at 1 mg/kg [18],Ki [22],inhibition in vivo at 2 mg/kg [24],Activity [26],inhibition in vivo at 0.5 mg/kg [30],Ki [33],also measured
O=C1c2cc(Cl)c3c4c(Oc5ccc(OCc6cn(CCCN7C[C@H](O)[C@@H](O)[C@H](O)[C@H]7CO)nn6)cc5)cc5c6c(cc(Oc7ccc(OCc8cn(CCCN9C[C@H](O)[C@@H](O)[C@H](O)[C@H]9CO)nn8)cc7)c(c7c(Oc8ccc(OCc9cn(CCCN%10C[C@H](O)[C@@H](O)[C@H](O)[C@H]%10CO)nn9)cc8)cc(c2c37)C(=O)N1Cc1cn(CCCN2C[C@H](O)[C@@H](O)[C@H](O)[C@H]2CO)nn1)c64)C(=O)N(Cc1cn(CCCN2C[C@H](O)[C@@H](O)[C@H](O)[C@H]2CO)nn1)C5=O,Non-Toxic,Non-Toxic,Non-Toxic,Non-Toxic,1.6,0.24 mmol/L,18%,23.8%,304.2 mg/dL,3.6,Non-Toxic,92%,323.49 mg/dL,175,26.9%,8040 nM,31.9%,287.49 mg/dL,12.3%,10 nM,Activity [6]: Non-Toxic; Activity [10]: Non-Toxic; Activity [16]: Non-Toxic; Activity [19]: Non-Toxic; Activity [20]: Non-Toxic; Activity [21]: Non-Toxic; Activity [23]: Non-Toxic; Ki [25]: 120 nM; Ki [27]: 310 nM; fold change (FC) [28]: 1.5; Activity [29]: Non-Toxic; Activity [31]: Non-Toxic; Activity [32]: Non-Toxic
O=C1c2cc(Oc3ccc(OCc4cn(CCCN5C[C@H](O)[C@@H](O)[C@H](O)[C@H]5CO)nn4)cc3)c3c4c(Oc5ccc(OCc6cn(CCCN7C[C@H](O)[C@@H](O)[C@H](O)[C@H]7CO)nn6)cc5)cc5c6c(cc(Oc7ccc(OCc8cn(CCCN9C[C@H](O)[C@@H](O)[C@H](O)[C@H]9CO)nn8)cc7)c(c7c(Oc8ccc(OCc9cn(CCCN%10C[C@H](O)[C@@H](O)[C@H](O)[C@H]%10CO)nn9)cc8)cc(c2c37)C(=O)N1Cc1cn(CCCN2C[C@H](O)[C@@H](O)[C@H](O)[C@H]2CO)nn1)c64)C(=O)N(Cc1cn(CCCN2C[C@H](O)[C@@H](O)[C@H](O)[C@H]2CO)nn1)C5=O,Non-Toxic,Non-Toxic,Non-Toxic,Non-Toxic,2.1,0.3 mmol/L,24.7%,34.6%,243.36 mg/dL,1.5,Non-Toxic,92%,279.6 mg/dL,219,37%,18900 nM,40.4%,229.32 mg/dL,24.4%,20 nM,Activity [34]: 242.06 µmol/L; inhibition in vivo at 2 mg/kg [35]: 37.8%; Activity [36]: 8.63 mmol/L; Activity [19]: Non-Toxic; Activity [20]: Non-Toxic; Activity [21]: Non-Toxic; Activity [23]: Non-Toxic; Ki [25]: 80 nM; Ki [27]: 140 nM; fold change (FC) [28]: 2.1; Activity [29]: Non-Toxic; Activity [32]: Non-Toxic; Activity [37]: 269.71 U/L; Activity [38]: 59.14 U/L
OCCN1C[C@H](O)[C@@H](O)[C@H](O)[C@H]1CO [MIGLITOL],,,,,,,23.1%,27.3%,273.6 mg/dL,,,,287.55 mg/dL,,30%,20800 nM,39.2%,233.28 mg/dL,22%,180 nM,inhibition in vivo at 2 mg/kg [35]: 41%
